Active and inactive are the calls of the source.
Legend:
[1] = molecular target: MAP kinase p38 (Mus musculus) (UniProt P47811+O08911+Q9WUI1+Q9Z1B7); assay: Inhibition of P38 phosphorylation in LPS-induced mouse RAW264.7 cells preincubated for 2 hrs followed by LPS addition and measured after 24 hrs by Western blot analysis; format: cell-based; details: dose 2.5-10 µmol, time 26.0 hrs
[2] = molecular target: Transcription factor p65 (Mus musculus) (UniProt Q04207); assay: Inhibition of P65 phosphorylation in LPS induced mouse RAW264.7 cells preincubated for 2 hrs followed by LPS addition and measured after 24 hrs by Western blot analysis; format: cell-based; details: dose 2.5-10 µmol, time 26.0 hrs
[3] = system: Mus musculus; assay: Antiinflammatory activity against MC093-induced atopic dermatitis BALB/c mouse model assessed as reduction in ear swelling at 50 to 100 mg/kg, IG administered starting from day 4 to 10 after MC093-stimulation; format: functional, organism-based; details: dose 50-100 mg/kg, time 7.0 day
[4] = molecular target: T1, Inhibitor of nuclear factor kappa-B kinase subunit alpha (Mus musculus) (UniProt Q60680); assay: Inhibition of IkappaB-alpha phosphorylation in LPS induced mouse RAW264.7 cells preincubated for 2 hrs followed by LPS addition and measured after 24 hrs by Western blot analysis; format: cell-based; details: dose 2.5-10 µmol, time 26.0 hrs
T1 sequence (whole entry): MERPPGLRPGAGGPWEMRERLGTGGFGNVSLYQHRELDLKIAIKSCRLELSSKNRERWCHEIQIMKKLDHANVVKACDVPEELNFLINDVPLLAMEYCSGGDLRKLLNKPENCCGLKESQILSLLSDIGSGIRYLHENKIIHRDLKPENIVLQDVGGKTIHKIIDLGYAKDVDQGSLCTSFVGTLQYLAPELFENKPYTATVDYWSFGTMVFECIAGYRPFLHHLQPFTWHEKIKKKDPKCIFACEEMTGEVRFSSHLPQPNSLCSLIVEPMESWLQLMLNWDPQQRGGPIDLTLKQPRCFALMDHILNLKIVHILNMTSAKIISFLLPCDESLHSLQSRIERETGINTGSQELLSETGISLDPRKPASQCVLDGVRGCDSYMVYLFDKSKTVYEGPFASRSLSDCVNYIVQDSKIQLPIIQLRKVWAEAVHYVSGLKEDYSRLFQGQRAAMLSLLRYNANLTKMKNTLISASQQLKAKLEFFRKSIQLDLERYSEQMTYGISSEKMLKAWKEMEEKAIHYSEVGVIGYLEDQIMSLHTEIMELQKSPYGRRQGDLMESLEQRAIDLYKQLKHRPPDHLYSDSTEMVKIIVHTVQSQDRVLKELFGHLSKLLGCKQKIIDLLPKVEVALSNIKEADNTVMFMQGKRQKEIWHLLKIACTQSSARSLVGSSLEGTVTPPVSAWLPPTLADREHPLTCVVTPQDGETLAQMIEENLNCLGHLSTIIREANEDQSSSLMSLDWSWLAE

[5] = system: Mus musculus; assay: Antiinflammatory activity against MC093-induced atopic dermatitis BALB/c mouse model assessed as reduction in HIS level in serum at 50 to 100 mg/kg, IG administered starting from day 4 to 10 after MC093-stimulation; format: functional, organism-based; details: dose 50-100 mg/kg, time 7.0 day
[6] = system: Mus musculus; assay: Antiinflammatory activity against MC093-induced atopic dermatitis BALB/c mouse model assessed as reduction in IgE level in serum at 50 to 100 mg/kg, IG administered starting from day 4 to 10 after MC093-stimulation; format: functional, organism-based; details: dose 50-100 mg/kg, time 7.0 day
[7] = system: Mus musculus; assay: Antiinflammatory activity against MC093-induced atopic dermatitis BALB/c mouse model assessed as reduction in IL-5 level in serum at 50 to 100 mg/kg, IG administered starting from day 4 to 10 after MC093-stimulation; format: functional, organism-based; details: dose 50-100 mg/kg, time 7.0 day
[8] = system: Mus musculus; assay: Antiinflammatory activity against MC093-induced atopic dermatitis BALB/c mouse model assessed as reduction in IL-13 level in serum at 50 to 100 mg/kg, IG administered starting from day 4 to 10 after MC093-stimulation; format: functional, organism-based; details: dose 50-100 mg/kg, time 7.0 day
[9] = system: Mus musculus; assay: Antiinflammatory activity against MC093-induced atopic dermatitis BALB/c mouse model assessed as reduction in number of scratches at 50 to 100 mg/kg, IG administered starting from day 4 to 10 and measured after 30 mins of MC093-stimulation; format: functional, organism-based; details: dose 50-100 mg/kg, time 7.0 day
[10] = system: Mus musculus; assay: In vivo inhibition of […] signalling pathway in MC093-induced atopic dermatitis BALB/c mouse model assessed as reduction in IkappaB-alpha phosphorylation level in ear skin at 50 to 100 mg/kg, IG administered starting from day 4 to 10 after MC093-stimulation by immunohistochemistry analysis; format: functional, organism-based; details: dose 50-100 mg/kg, time 7.0 day
[11] = system: Mus musculus; assay: Antiinflammatory activity against MC093-induced atopic dermatitis BALB/c mouse model assessed as reduction in weight of ear at 50 to 100 mg/kg, IG administered starting from day 4 to 10 after MC093-stimulation; format: functional, organism-based; details: dose 50-100 mg/kg, time 7.0 day
[12] = system: Mus musculus; assay: Antiinflammatory activity against MC093-induced atopic dermatitis BALB/c mouse model assessed as reduction in TSLP level in serum at 50 to 100 mg/kg, IG administered starting from day 4 to 10 after MC093-stimulation; format: functional, organism-based; details: dose 50-100 mg/kg, time 7.0 day
[13] = system: Mus musculus; assay: Antiinflammatory activity against MC093-induced atopic dermatitis BALB/c mouse model assessed as reduction in inflammatory cell infiltration in ear at 50 to 100 mg/kg, IG administered starting from day 4 to 10 after MC093-stimulation by H and E staining assay; format: functional, organism-based; details: dose 50-100 mg/kg, time 7.0 day
[14] = system: Mus musculus; assay: In vivo inhibition of MAPK signalling pathway in MC093-induced atopic dermatitis BALB/c mouse model assessed as reduction in p-JNK/JNK ratio in ear skin at 50 to 100 mg/kg, IG administered starting from day 4 to 10 after MC093-stimulation by Western blot analysis; format: functional, organism-based; details: dose 50-100 mg/kg, time 7.0 day
[15] = Cytotoxicity against mouse RAW264.7 cells assessed as inhibition of cell viability at 20 uM by MTT assay relative to control; format: toxicity, cell-based; details: read-out: INH
[16] = system: RAW264.7; assay: Inhibition of LPS-induced NO production in mouse RAW264.7 cells preincubated for 2 hrs followed by LPS addition and measured after 24 hrs by Griess assay relative to control; format: functional, cell-based
[17] = system: Mus musculus; assay: In vivo inhibition of NFkappaB signalling pathway in IG dosed MC093-induced atopic dermatitis BALB/c mouse model assessed as reduction in P65 phosphorylation level in ear skin starting from day 4 to 10 after MC093-stimulation by Western blot analysis; format: functional, organism-based; details: dose 50-100 mg/kg, time 7.0 day
[18] = system: Mus musculus; assay: Antiinflammatory activity against MC093-induced atopic dermatitis BALB/c mouse model assessed as reduction in epidermal thickness of ear at 50 to 100 mg/kg, IG administered starting from day 4 to 10 after MC093-stimulation by H and E staining assay; format: functional, organism-based; details: dose 50-100 mg/kg, time 7.0 day
[19] = system: Mus musculus; assay: In vivo inhibition of NFkappaB signalling pathway in IG dosed MC093-induced atopic dermatitis BALB/c mouse model assessed as reduction in IkappaB-alpha phosphorylation level in ear skin starting from day 4 to 10 after MC093-stimulation by Western blot analysis; format: functional, organism-based; details: dose 50-100 mg/kg, time 7.0 day
[20] = system: Mus musculus; assay: In vivo inhibition of MAPK signalling pathway in MC093-induced atopic dermatitis BALB/c mouse model assessed as reduction in p-ERK/ERK ratio in ear skin at 50 to 100 mg/kg, IG administered starting from day 4 to 10 after MC093-stimulation by Western blot analysis; format: functional, organism-based; details: dose 50-100 mg/kg, time 7.0 day
[21] = Cytotoxicity against mouse RAW264.7 cells assessed as inhibition of cell viability by MTT assay relative to control; format: toxicity, cell-based
[22] = system: Mus musculus; assay: In vivo inhibition of MAPK signalling pathway in MC093-induced atopic dermatitis BALB/c mouse model assessed as reduction in p-P38/P38 ratio in ear skin at 50 to 100 mg/kg, IG administered starting from day 4 to 10 after MC093-stimulation by Western blot analysis; format: functional, organism-based; details: dose 50-100 mg/kg, time 7.0 day
[23] = system: Mus musculus; assay: Antiinflammatory activity against MC093-induced atopic dermatitis BALB/c mouse model assessed as reduction in IL-33 level in serum at 50 to 100 mg/kg, IG administered starting from day 4 to 10 after MC093-stimulation; format: functional, organism-based; details: dose 50-100 mg/kg, time 7.0 day
[24] = system: RAW264.7; assay: Inhibition of LPS-induced NO production in mouse RAW264.7 cells at 20 uM preincubated for 2 hrs followed by LPS addition and measured after 24 hrs by Griess assay relative to control; format: functional; details: time 26 hrs
[25] = system: Mus musculus; assay: Antiinflammatory activity against MC093-induced atopic dermatitis BALB/c mouse model assessed as reduction in scratching latency at 50 to 100 mg/kg, IG administered starting from day 4 to 10 and measured after 30 mins of MC093-stimulation; format: functional, organism-based; details: dose 50-100 mg/kg, time 7.0 day
[26] = system: Mus musculus; assay: In vivo inhibition of […] signalling pathway in MC093-induced atopic dermatitis BALB/c mouse model assessed as reduction in P65 phosphorylation level in ear skin at 50 to 100 mg/kg, IG administered starting from day 4 to 10 after MC093-stimulation by immunohistochemistry analysis; format: functional, organism-based; details: dose 50-100 mg/kg, time 7.0 day
[27] = system: Mus musculus; assay: Antiinflammatory activity against MC093-induced atopic dermatitis BALB/c mouse model assessed as reduction in IL-4 level in serum at 50 to 100 mg/kg, IG administered starting from day 4 to 10 after MC093-stimulation; format: functional, organism-based; details: dose 50-100 mg/kg, time 7.0 day

Chain of Transcription factor p65 (Mus musculus) (Q04207 whole entry): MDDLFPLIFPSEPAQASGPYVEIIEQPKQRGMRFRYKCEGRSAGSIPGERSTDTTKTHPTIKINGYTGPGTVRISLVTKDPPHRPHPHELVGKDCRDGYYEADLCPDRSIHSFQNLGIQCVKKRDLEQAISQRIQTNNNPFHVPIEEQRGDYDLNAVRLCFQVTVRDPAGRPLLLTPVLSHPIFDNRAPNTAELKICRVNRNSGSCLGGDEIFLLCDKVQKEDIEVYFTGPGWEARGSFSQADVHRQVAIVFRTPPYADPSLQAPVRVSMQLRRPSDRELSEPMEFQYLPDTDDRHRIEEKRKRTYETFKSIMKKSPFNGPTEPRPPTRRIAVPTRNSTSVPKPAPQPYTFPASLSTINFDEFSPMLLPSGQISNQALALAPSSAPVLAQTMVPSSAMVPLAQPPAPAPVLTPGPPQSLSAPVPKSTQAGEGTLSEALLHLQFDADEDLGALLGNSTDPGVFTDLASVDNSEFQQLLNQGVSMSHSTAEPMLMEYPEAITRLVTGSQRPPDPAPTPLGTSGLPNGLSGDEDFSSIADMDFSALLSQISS

C=C1CC[C@H]2C(=C)CC[C@H]3C(CN(CCNS(=O)(=O)c4ccc(C(F)(F)F)cc4)S(=O)(=O)c4ccc(C(F)(F)F)cc4)C(=O)O[C@@H]3[C@@H]12 (some centres not stated)
-6.84%: cytotoxicity at 20 µM [15]
2080 nM: IC50 [16]
inactive: Activity [5] | inhibition [14] | inhibition [20] | inhibition [22]
> 40000 nM: IC50 [21]
active: inhibition [1] Dose-Dependent Effect | inhibition [2] Dose-Dependent Effect | Activity [3] | inhibition [4] Dose-Dependent Effect | Activity [6] | Activity [7] | Activity [8] | Activity [9] | inhibition [10] | Activity [11] | Activity [12] | Activity [13] | inhibition [17] Dose-Dependent Effect | Activity [18] | inhibition [19] Dose-Dependent Effect | Activity [23] | Activity [25] | inhibition [26] | Activity [27]
85.1%: inhibition at 20 µM [24]

Reference: ChEMBL document CHEMBL5584329, “Development of new dehydrocostuslactone derivatives for treatment of atopic dermatitis via inhibition of the NF-κB signaling pathway” (RSC Med Chem, 2024)
